PubChem BioAssay AID248 (DTP/NCI, 2004)
“And” between values parts separate entries of the source, which are not always exact repeats. Identical values can stand only once. Toxic doses and inconclusive results are not listed. Square brackets hold non-standard residues; d marks the D form. Peptide text beside a SMILES is read from it. * marks the point of attachment. ξ: configuration not given here. Boc = CC(C)(C)OC(=O)*; ξP = O=C(O)C1CCCN1

System: L1210 leukemia ip in BDF1 mice, survival T/C
Experiment: NCI In Vivo Anticancer Drug Screen. Data for tumor model L1210 Leukemia (intraperitoneal) in B6D2F1 (BDF1) mice
Settings: endpoint: mean survival time, higher = longer survival
Method in brief: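 Read-out is survival time, reported as the treated-group measurement over the vehicle-control measurement.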

[1] = dose: 100.0 mg/kg/injection, schedule: Q01DX009 (ip), vehicle: saline with Tween-80
[2] = dose: 200.0 mg/kg/injection, schedule: Q01DX009 (ip), vehicle: saline with Tween-80
[3] = dose: 100.0 mg/kg/injection, schedule: Q01DX001 (ip), vehicle: saline
[4] = dose: 200.0 mg/kg/injection, schedule: Q01DX001 (ip), vehicle: saline
[5] = dose: 400.0 mg/kg/injection, schedule: Q01DX001 (ip), vehicle: saline
[6] = dose: 100.0 mg/kg/injection, schedule: Q01DX009 (ip), vehicle: Klucel (hydroxypropylcellulose) (HPC)
[7] = dose: 200.0 mg/kg/injection, schedule: Q01DX009 (ip), vehicle: Klucel (hydroxypropylcellulose) (HPC)
[8] = dose: 400.0 mg/kg/injection, schedule: Q01DX009 (ip), vehicle: Klucel (hydroxypropylcellulose) (HPC)
[9] = dose: 50.0 mg/kg/injection, schedule: Q01DX009 (ip), vehicle: saline
[10] = dose: 100.0 mg/kg/injection, schedule: Q01DX009 (ip), vehicle: saline
[11] = dose: 200.0 mg/kg/injection, schedule: Q01DX009 (ip), vehicle: saline
[12] = dose: 100.0 mg/kg/injection, schedule: Q04DX003 (ip), vehicle: acetone
[13] = dose: 200.0 mg/kg/injection, schedule: Q04DX003 (ip), vehicle: acetone
[14] = dose: 400.0 mg/kg/injection, schedule: Q04DX003 (ip), vehicle: acetone
[15] = dose: 100.0 mg/kg/injection, schedule: Q04DX003 (ip), vehicle: saline with Tween-80
[16] = dose: 200.0 mg/kg/injection, schedule: Q04DX003 (ip), vehicle: saline with Tween-80

Question: Which results are given for `CCN(CC)C(=O)c1cc([N+](=O)[O-])ccc1OCc1ccccc1`?
Answer: T/C (dose: 25.0 mg/kg/injection, schedule: Q04DX002 (ip), vehicle: saline with Tween-80): 98 % of control; T/C (dose: 50.0 mg/kg/injection, schedule: Q04DX002 (ip), vehicle: saline with Tween-80): 98 % of control; T/C (dose: 100.0 mg/kg/injection, schedule: Q04DX002 (ip), vehicle: saline with Tween-80): 110 % of control and 91 % of control; T/C (dose: 200.0 mg/kg/injection, schedule: Q04DX002 (ip), vehicle: saline with Tween-80): 89 % of control; T/C (dose: 400.0 mg/kg/injection, schedule: Q04DX002 (ip), vehicle: saline with Tween-80): 95 % of control

Question: What does the source list for `CC(C)(C)c1ccc(N)c([N+](=O)[O-])c1`?
Answer: T/C (dose: 50.0 mg/kg/injection, schedule: Q01DX009 (ip), vehicle: saline with Tween-80): 102 % of control; T/C [1]: 87 % of control; T/C [2]: 102 % of control

Question: Which results are given for `COC(=O)C1CCCN1C(=O)CNC(=O)OC(C)(C)C` (stereo not drawn) (Boc-Gly-[ξP]-OMe)?
Answer: T/C [3]: 103 % of control; T/C [4]: 97 % of control; T/C [5]: 94 % of control

Question: With `C=CCOP(=O)(N1CC1CC)N1CC1CC` (stereo not drawn) as the compound, how does the T/C (dose: 10.0 mg/kg/injection, schedule: Q01DX015 (ip), vehicle: saline) read?
Answer: 103 % of control

Question: And the T/C (dose: 20.0 mg/kg/injection, schedule: Q01DX015 (ip), vehicle: saline)?
Answer: 96 % of control

Question: What about the T/C (dose: 40.0 mg/kg/injection, schedule: Q01DX015 (ip), vehicle: saline) of the same compound?
Answer: 102 % of control

Question: What about the T/C (dose: 80.0 mg/kg/injection, schedule: Q01DX015 (ip), vehicle: saline) of the same compound?
Answer: 108 % of control

Question: Which results are given for `CC1(CBr)Oc2ccccc2O1`?
Answer: T/C [6]: 115 % of control; T/C [7]: 97 % of control; T/C [8]: 101 % of control

Question: Which T/C [3] does the source give for `Cc1[nH]c(=S)[nH]c(=O)c1CCSC(=N)N` here?
Answer: 108 % of control

Question: What about the T/C [4] of the same compound?
Answer: 103 % of control

Question: With `Cc1ccc(S(=O)(=O)OCC(CO)(COS(=O)(=O)c2ccc(C)cc2)[N+](=O)[O-])cc1` as the compound, how does the T/C [9] read?
Answer: 104 % of control

Question: What about the T/C [10] of the same compound?
Answer: 94 % of control

Question: And the T/C (dose: 100.0 mg/kg/injection, schedule: Q04DX003 (ip), vehicle: Klucel (hydroxypropylcellulose) (HPC))?
Answer: 97 % of control

Question: What about the T/C [11] of the same compound?
Answer: 96 % of control

Question: What about the T/C (dose: 200.0 mg/kg/injection, schedule: Q04DX003 (ip), vehicle: Klucel (hydroxypropylcellulose) (HPC)) of the same compound?
Answer: 105 % of control

Question: What does the source list for `O=[N+]([O-])c1ccc(N/N=C\c2ccc3ccccc3n2)cc1`?
Answer: T/C [10]: 97 % of control; T/C [11]: 104 % of control; T/C (dose: 400.0 mg/kg/injection, schedule: Q01DX009 (ip), vehicle: saline): 91 % of control

Question: With `Cc1ccnc(NS(=O)(=O)c2ccc(N=Nc3ccc(O)c4ncccc34)cc2)n1` as the compound, how does the T/C [3] read?
Answer: 108 % of control

Question: And the T/C [4]?
Answer: 100 % of control

Question: And the T/C [5]?
Answer: 97 % of control

Question: For `CCOC(=O)N1C2OC(C(COC(C)=O)=C2COC(C)=O)N1C(=O)OCC`, which T/C (dose: 12.5 mg/kg/injection, schedule: Q04DX002 (ip), vehicle: saline) is on record?
Answer: 99 % of control

Question: And the T/C (dose: 25.0 mg/kg/injection, schedule: Q04DX002 (ip), vehicle: saline)?
Answer: 99 % of control

Question: What about the T/C (dose: 50.0 mg/kg/injection, schedule: Q04DX002 (ip), vehicle: saline) of the same compound?
Answer: 99 % of control

Question: For `C=CC(=C)OC`, which T/C (dose: 25.0 mg/kg/injection, schedule: Q01DX005 (ip), vehicle: saline) is on record?
Answer: 117 % of control

Question: What about the T/C (dose: 50.0 mg/kg/injection, schedule: Q01DX005 (ip), vehicle: saline) of the same compound?
Answer: 113 % of control

Question: What about the T/C (dose: 100.0 mg/kg/injection, schedule: Q01DX005 (ip), vehicle: saline) of the same compound?
Answer: 111 % of control

Question: What about the T/C (dose: 200.0 mg/kg/injection, schedule: Q01DX005 (ip), vehicle: saline) of the same compound?
Answer: 107 % of control

Question: What about the T/C (dose: 400.0 mg/kg/injection, schedule: Q01DX005 (ip), vehicle: saline) of the same compound?
Answer: 111 % of control

Question: Which T/C (dose: 100.0 mg/kg/injection, schedule: Q01DX001 (ip), vehicle: carboxymethylcellulose (CMC)) does the source give for `ClCCN(CCCl)c1ccc(C=Nc2ccc(-c3csc(Cc4ccccc4)n3)c(Cl)c2)cc1` here?
Answer: 93 % of control

Question: And the T/C (dose: 200.0 mg/kg/injection, schedule: Q01DX001 (ip), vehicle: carboxymethylcellulose (CMC))?
Answer: 88 % of control

Question: And the T/C (dose: 400.0 mg/kg/injection, schedule: Q01DX001 (ip), vehicle: carboxymethylcellulose (CMC))?
Answer: 87 % of control

Question: For `Cc1ccc(C(=O)C2OC2c2ccccc2)cc1` (stereo not drawn), which T/C (dose: 100.0 mg/kg/injection, schedule: Q01DX001 (ip), vehicle: Klucel (hydroxypropylcellulose) (HPC)) is on record?
Answer: 97 % of control

Question: And the T/C (dose: 200.0 mg/kg/injection, schedule: Q01DX001 (ip), vehicle: Klucel (hydroxypropylcellulose) (HPC))?
Answer: 95 % of control

Question: What about the T/C (dose: 400.0 mg/kg/injection, schedule: Q01DX001 (ip), vehicle: Klucel (hydroxypropylcellulose) (HPC)) of the same compound?
Answer: 89 % of control

Question: Which T/C (dose: 1.56 mg/kg/injection, schedule: Q01DX009 (ip), vehicle: Klucel (hydroxypropylcellulose) (HPC)) does the source give for `O=S(=O)(F)c1ccccc1C[P+](c1ccccc1)(c1ccccc1)c1ccccc1` here?
Answer: 110 % of control

Question: What about the T/C (dose: 3.12 mg/kg/injection, schedule: Q01DX009 (ip), vehicle: Klucel (hydroxypropylcellulose) (HPC)) of the same compound?
Answer: 118 % of control

Question: What about the T/C (dose: 6.25 mg/kg/injection, schedule: Q01DX009 (ip), vehicle: Klucel (hydroxypropylcellulose) (HPC)) of the same compound?
Answer: 117 % of control

Question: Which results are given for `CCOC(=O)/C(Cc1ccc2ccccc2n1)=N/O`?
Answer: T/C [9]: 93 % of control; T/C [10]: 98 % of control; T/C (dose: 100.0 mg/kg/injection, schedule: Q04DX003 (ip), vehicle: saline): 98 % of control; T/C [11]: 87 % of control; T/C (dose: 200.0 mg/kg/injection, schedule: Q04DX003 (ip), vehicle: saline): 96 % of control; T/C (dose: 400.0 mg/kg/injection, schedule: Q04DX003 (ip), vehicle: saline): 93 % of control

Question: What does the source list for `C1CCCCCC(N2CCCC2)CCCCC1`?
Answer: T/C (dose: 6.0 mg/kg/injection, schedule: Q01DX009 (ip), vehicle: saline): 107 % of control; T/C (dose: 12.0 mg/kg/injection, schedule: Q01DX009 (ip), vehicle: saline): 102 % of control; T/C (dose: 12.5 mg/kg/injection, schedule: Q04DX003 (ip), vehicle: saline): 100 % of control; T/C (dose: 25.0 mg/kg/injection, schedule: Q01DX009 (ip), vehicle: saline): 100 % of control; T/C (dose: 25.0 mg/kg/injection, schedule: Q04DX003 (ip), vehicle: saline): 95 % of control

Question: What does the source list for `Cc1ccc(N=Cc2cc([N+](=O)[O-])ccc2O)cc1`?
Answer: T/C (dose: 87.5 mg/kg/injection, schedule: Q04DX003 (ip), vehicle: Klucel (hydroxypropylcellulose) (HPC)): 102 % of control; T/C (dose: 175.0 mg/kg/injection, schedule: Q04DX003 (ip), vehicle: Klucel (hydroxypropylcellulose) (HPC)): 92 % of control; T/C (dose: 350.0 mg/kg/injection, schedule: Q04DX003 (ip), vehicle: Klucel (hydroxypropylcellulose) (HPC)): 97 % of control

Question: How did the T/C [12] turn out when `COc1cc(NC(C)=O)ccn1` was run?
Answer: 89 % of control

Question: What about the T/C [13] of the same compound?
Answer: 100 % of control

Question: And the T/C [14]?
Answer: 110 % of control

Question: What does the source list for `Cc1cc(NS(=O)(=O)c2ccc(N=Nc3ccc(N)nc3N)cc2)nc(C)n1`?
Answer: T/C [3]: 102 % of control; T/C [4]: 105 % of control; T/C [5]: 100 % of control

Question: What does the source list for `O=C(Nc1ccc(S(=O)(=O)F)cc1)/C(=C/c1cccc([N+](=O)[O-])c1)c1ccccc1`?
Answer: T/C [6]: 106 % of control; T/C [7]: 94 % of control; T/C [8]: 100 % of control

Question: With `O=S(=O)(c1ccccc1)N1CCOC1=S` as the compound, how does the T/C [12] read?
Answer: 93 % of control

Question: What about the T/C [13] of the same compound?
Answer: 101 % of control

Question: And the T/C [14]?
Answer: 93 % of control

Question: `O=C(O)C1CCCCC1C(=O)Nc1ccc(F)cc1` (stereo not drawn) was tested. Which T/C [1] did it give?
Answer: 103 % of control

Question: And the T/C [15]?
Answer: 102 % of control

Question: And the T/C [2]?
Answer: 90 % of control

Question: What about the T/C [16] of the same compound?
Answer: 102 % of control

Question: And the T/C (dose: 400.0 mg/kg/injection, schedule: Q01DX009 (ip), vehicle: saline with Tween-80)?
Answer: 105 % of control

Question: What about the T/C (dose: 400.0 mg/kg/injection, schedule: Q04DX003 (ip), vehicle: saline with Tween-80) of the same compound?
Answer: 96 % of control

Question: For `O=S(=O)(c1ccc2ccccc2c1)C1CC1c1ccccc1` (stereo not drawn), which T/C (dose: 100.0 mg/kg/injection, schedule: Q01DX001 (ip), vehicle: acetone) is on record?
Answer: 92 % of control

Question: And the T/C (dose: 200.0 mg/kg/injection, schedule: Q01DX001 (ip), vehicle: acetone)?
Answer: 98 % of control

Question: What about the T/C (dose: 400.0 mg/kg/injection, schedule: Q01DX001 (ip), vehicle: acetone) of the same compound?
Answer: 93 % of control

Question: How did the T/C [15] turn out when `Nc1nc(C=O)c(CCc2ccccc2)c(=O)[nH]1` was run?
Answer: 100 % of control

Question: What about the T/C [16] of the same compound?
Answer: 97 % of control

Question: How did the T/C (dose: 20.0 mg/kg/injection, schedule: Q04DX003 (ip), vehicle: saline with Tween-80) turn out when `FCCSc1ncnc2nc[nH]c12` was run?
Answer: 113 % of control

Question: And the T/C (dose: 29.5 mg/kg/injection, schedule: Q04DX003 (ip), vehicle: saline with Tween-80)?
Answer: 116 % of control

Question: What about the T/C [15] of the same compound?
Answer: 159 % of control
